# Legend:
# [1] = system: Adult women of all ages with a score lower than four points for all five domains; assay: Women responding by FSFI: score equal to or higher than four points for all five domains after four weeks (Examples 3, 5, 6); format: in vivo, human; conditions: daily supply, four weeks treatment
# Source text: Women's sexual function is scored using the established “Female Sexual Function Index” (FSFI) questionnaire [Rosen et al., 2000]. The questionnaire allows to score prevalence of six subcategories (domains) related to female sexual function, with minimum and maximum scores given:
# Adult women of all ages were investigated who presented with a score lower than four points out of maximum six points for all five domains.
# The investigation depicts the number of responders to the intervention as detailed in the tables after four weeks treatment with a score equal to or higher than four points for all five domains.
# [2] = system: postmenopausal women; conditions: taken together with supplemental hormones, cited from earlier work
# [3] = system: postmenopausal women; conditions: cited from earlier work
SMILES,Responders (women responding with improvement / n) [1],"women who reported improved genital sensations ([2]; 202 postmenopausal women, placebo group 43 percent) [%]",group members who reported greater satisfaction with sex ([2]; placebo group 27 percent),treatment of SD [3]
"N=C(N)NCCC[C@H](N)C(=O)O [2.8 g L-arginine, L-arginine]",5/26,,,
CCCc1nn(C)c2c(=O)[nH]c(-c3cc(S(=O)(=O)N4CCN(C)CC4)ccc3OCC)nc12 [sildenafil],,57,Forty-one,not effective
